Data from ChEMBL document CHEMBL4387782, “A new approach to procyanidins synthesis with potent anti-adipogenic effects” (Bioorg Med Chem Lett, 2019).
pIC50: −log10 of the molar value. Active and inactive are the calls of the source. The calls are words filed in the database; no cut-off is given here.

What was measured:
[1] = target: T1, Pancreatic triacylglycerol lipase (Sus scrofa, UniProt P00591); assay: Inhibition of porcine pancreatic lipase using pNPB as substrate measured after 30 mins
T1 sequence (P00591 whole entry): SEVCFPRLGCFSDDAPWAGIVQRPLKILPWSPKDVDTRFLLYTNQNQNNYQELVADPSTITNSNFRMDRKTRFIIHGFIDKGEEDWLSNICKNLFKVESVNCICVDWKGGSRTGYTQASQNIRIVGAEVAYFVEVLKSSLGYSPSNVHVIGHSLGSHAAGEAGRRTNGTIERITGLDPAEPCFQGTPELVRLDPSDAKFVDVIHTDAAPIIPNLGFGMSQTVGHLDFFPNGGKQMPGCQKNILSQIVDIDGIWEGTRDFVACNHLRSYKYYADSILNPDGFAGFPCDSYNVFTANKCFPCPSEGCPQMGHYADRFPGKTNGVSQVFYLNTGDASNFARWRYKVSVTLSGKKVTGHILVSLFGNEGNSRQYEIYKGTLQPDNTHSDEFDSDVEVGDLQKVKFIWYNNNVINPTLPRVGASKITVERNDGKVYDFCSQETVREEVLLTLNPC

[2] = Cytotoxicity against mouse 3T3L1 cells assessed as reduction in cell viability after 48 hrs by sulforhodamine B assay; format: cell-based; conditions: 3T3-L1 cells
3T3-L1 [3] = assay: Cytotoxicity against mouse 3T3L1 cells assessed as effect on cell viability up to 50 uM by MTT assay; format: cell-based
3T3-L1 [4] = assay: Inhibition of cell differentiation in mouse 3T3L1 cells assessed as reduction in pre-adipocyte differentiation into matured adipocytes at 2.5 to 10 uM incubated for 8 days in differentiation media by oil red O staining based method; format: functional
3T3-L1 [5] = assay: Anti-adipogenic activity in mouse 3T3L1 preadipocytes assessed as decrease in lipid accumulation at 10 uM incubated for 8 days in differentiation media by Oil Red O staining based ELISA relative to control; format: functional; design: scale not given: the % may be the effect or the level left
3T3-L1 [6] = assay: Anti-adipogenic activity in mouse 3T3L1 preadipocytes assessed as decrease in lipid accumulation at 5 uM incubated for 8 days in differentiation media by Oil Red O staining based ELISA relative to control; format: functional; design: scale not given: the % may be the effect or the level left
3T3-L1 [7] = assay: Anti-adipogenic activity in mouse 3T3L1 preadipocytes assessed as decrease in lipid accumulation at 2.5 uM incubated for 8 days in differentiation media by Oil Red O staining based ELISA relative to control; format: functional; design: scale not given: the % may be the effect or the level left
[8] = target: T1, Pancreatic triacylglycerol lipase; assay: Inhibition of porcine pancreatic lipase using pNPB as substrate measured after 30 mins using plasma treated sample

| SMILES | pIC50 [1] | MNTC at 48 h [2] [µM] | Activity (3T3-L1 [3]) | inhibition (3T3-L1 [4]) | Activity (3T3-L1 [5]) [%] | Activity (3T3-L1 [6]) [%] | Activity (3T3-L1 [7]) [%] | pIC50 [8] |
| --- | --- | --- | --- | --- | --- | --- | --- | --- |
| Oc1ccc([C@H]2Oc3cc(O)c(Cc4c(O)cc(O)c5c4O[C@H](c4ccc(O)c(O)c4)[C@@H](O)C5)c(O)c3C[C@@H]2O)cc1O | 3.99 | 50 | Non-Toxic |  |  |  |  |  |
| Oc1ccc([C@H]2Oc3cc(O)c(Cc4c(O)cc5c(c4O)C[C@H](O)[C@@H](c4ccc(O)c(O)c4)O5)c(O)c3C[C@@H]2O)cc1O | 4.10 | 50 | Non-Toxic | Active |  |  |  |  |
| Oc1ccc([C@H]2Oc3c(Cc4c(O)c(Cc5c(O)c(Cc6c(O)cc(O)c7c6O[C@H](c6ccc(O)c(O)c6)[C@@H](O)C7)c(O)c6c5O[C@H](c5ccc(O)c(O)c5)[C@@H](O)C6)c5c(c4O)C[C@H](O)[C@@H](c4ccc(O)c(O)c4)O5)c(O)cc(O)c3C[C@@H]2O)cc1O | 4.73 | 50 | Non-Toxic | Active | 67.2 | 52.1 | 40.1 |  |
| Oc1ccc([C@H]2Oc3c(Cc4c(O)c(Cc5c(O)cc(O)c6c5O[C@H](c5ccc(O)c(O)c5)[C@@H](O)C6)c5c(c4O)C[C@H](O)[C@@H](c4ccc(O)c(O)c4)O5)c(O)cc(O)c3C[C@@H]2O)cc1O | 4.34 | 50 | Non-Toxic | Active |  |  |  |  |
| Oc1cc(O)c2c(c1)O[C@H](c1ccc(O)c(O)c1)[C@@H](O)C2 [CIANIDANOL] | < 3.30 |  |  |  |  |  |  | 3.47 |
| Oc1ccc([C@H]2Oc3c(Cc4c(O)cc(O)c5c4O[C@H](c4ccc(O)c(O)c4)[C@@H](O)C5)c(O)cc(O)c3C[C@@H]2O)cc1O | 3.96 | 50 | Non-Toxic |  |  |  |  |  |
